Columns and labels:
Assay in all cases: relative viability (nuclei count vs DMSO), 5 days (fraction); higher = more cells survive
[1] = compound: C1=CC=C(C(=C1)C2=CC=C(C=C2)C3=CSC4=C3C(=C(C(=O)N4)C#N)O)O + Cc1nc(NC(=O)N2CCC[C@H]2C(N)=O)sc1-c1ccnc(C(C)(C)C(F)(F)F)c1 [Alpelisib] (partner 2 µM)
In short: (§1)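 A single step with final 0.05% Triton X-100, 1% formaldehyde and 1 ug/ml Hoechst fixed the cells and stained nuclei 5 days after treatment. Lung cancer cell lines in 1536-well plates had been treated by pin tool the day after seeding with one drug alone or a fixed anchor-drug dose plus five library-drug doses (not always all listed) in √10 steps, and nuclei were counted on 4× images. Relative viability is the ratio of nuclei in treated wells to nuclei in vehicle wells, taken as the median of duplicate plates.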

[2] = compound: C1=CC=C(C(=C1)C2=CC=C(C=C2)C3=CSC4=C3C(=C(C(=O)N4)C#N)O)O + Cc1nc(Nc2ncc(C(=O)Nc3c(C)cccc3Cl)s2)cc(N2CCN(CCO)CC2)n1 [Dasatinib] (partner 0.075 µM)
In short: as §1

[3] = compound: CC1=CN2C(=O)C=C(N=C2C(=C1)C(C)NC3=CC=CC=C3)N4CCOCC4 [TGX 221] + COc1cccc2cc(-c3nc([C@H]4CC[C@H](C(=O)O)CC4)n4ncnc(N)c34)[nH]c12 [OSI-027] (partner 0.5 µM)
In short: as §1

[4] = compound: CC1=CN2C(=O)C=C(N=C2C(=C1)C(C)NC3=CC=CC=C3)N4CCOCC4 [TGX 221] + Nc1nc2[nH]cc(CCc3ccc(C(=O)N[C@@H](CCC(=O)O)C(=O)O)cc3)c2c(=O)[nH]1 [Pemetrexed] (partner 0.2 µM)
In short: as §1

| Cell Line | relative viability ([1]; first compound 0.08 µM) | relative viability ([1]; first compound 0.253 µM) | relative viability ([1]; first compound 0.8 µM) | relative viability ([1]; first compound 2.53 µM) | relative viability ([1]; first compound 8 µM) | relative viability ([2]; first compound 0.08 µM) | relative viability ([2]; first compound 0.253 µM) | relative viability ([2]; first compound 0.8 µM) | relative viability ([2]; first compound 2.53 µM) | relative viability ([2]; first compound 8 µM) | relative viability ([3]; first compound 0.08 µM) | relative viability ([3]; first compound 0.253 µM) | relative viability ([3]; first compound 0.8 µM) | relative viability ([3]; first compound 2.53 µM) | relative viability ([3]; first compound 8 µM) | relative viability ([4]; first compound 0.08 µM) | relative viability ([4]; first compound 0.253 µM) | relative viability ([4]; first compound 0.8 µM) | relative viability ([4]; first compound 2.53 µM) | relative viability ([4]; first compound 8 µM) |
| --- | --- | --- | --- | --- | --- | --- | --- | --- | --- | --- | --- | --- | --- | --- | --- | --- | --- | --- | --- | --- |
| NCI-H322M | 0.814 | 0.901 | 0.958 | 0.835 | 0.703 | 0.245 | 0.244 | 0.234 | 0.243 | 0.273 | 0.541 | 0.515 | 0.551 | 0.507 | 0.567 | 0.58 | 0.619 | 0.604 | 0.579 | 0.565 |
| NCI-H358 | 0.708 | 0.862 | 0.788 | 0.973 | 0.763 | 0.211 | 0.2 | 0.174 | 0.139 | 0.196 | 0.716 | 0.719 | 0.756 | 0.739 | 0.583 | 0.189 | 0.167 | 0.168 | 0.166 | 0.174 |
| NCI-H441 |  | 0.773 |  | 0.75 | 0.816 | 0.437 | 0.626 | 0.582 | 0.636 | 0.538 | 0.58 | 0.698 | 0.576 | 0.728 | 0.665 | 0.238 | 0.224 | 0.231 | 0.28 | 0.266 |
| NCI-H460 |  | 0.67 | 0.596 | 0.588 | 0.387 | 0.37 | 0.406 | 0.485 | 0.577 | 0.506 | 0.666 | 0.566 | 0.713 | 0.56 | 0.504 | 0.0673 | 0.0618 | 0.0662 | 0.0757 | 0.0781 |
| NCI-H520 | 0.602 | 0.767 | 1.03 | 0.87 | 0.861 | 0.193 | 0.179 | 0.258 | 0.202 | 0.212 | 0.212 | 0.165 | 0.227 | 0.188 | 0.195 | 0.592 | 0.459 | 0.476 | 0.457 | 0.358 |
| NCI-H596 | 0.397 | 0.541 | 0.489 | 0.497 | 0.447 | 0.568 | 0.678 | 0.713 | 0.557 | 0.476 | 0.748 | 0.688 | 0.803 | 0.487 | 0.693 | 0.441 | 0.419 | 0.473 | 0.452 | 0.479 |
| NCI-H647 | 0.559 | 1 | 1.11 | 1.19 | 1.34 | 0.153 | 0.189 | 0.191 | 0.183 | 0.1 | 0.475 | 0.562 | 0.483 | 0.517 | 0.425 | 0.15 | 0.162 | 0.18 | 0.163 | 0.146 |
| NCI-H650 | 1.1 | 1.36 | 0.961 | 1.11 | 1.22 | 0.45 | 0.449 | 0.428 | 0.474 | 0.428 | 0.519 | 0.515 | 0.445 | 0.527 | 0.504 | 0.87 | 0.894 | 0.919 | 0.882 | 0.926 |
| NCI-H661 | 0.59 | 0.583 | 0.538 | 0.554 | 0.549 | 0.771 | 0.916 | 1.07 | 0.834 | 0.801 | 0.748 | 0.695 | 0.689 | 0.673 | 0.706 | 0.878 | 0.919 | 0.955 | 0.955 | 0.853 |
| NCI-H838 | 0.66 | 0.97 | 1.03 | 0.924 | 0.989 | 0.251 | 0.295 | 0.317 | 0.267 | 0.269 | 0.399 | 0.326 | 0.326 | 0.365 | 0.355 | 0.255 | 0.232 | 0.235 | 0.232 | 0.231 |
| NCI-H1355 | 0.927 | 1 | 0.899 | 0.829 | 0.663 | 0.619 | 0.668 | 0.708 | 0.64 | 0.639 | 0.377 | 0.427 | 0.385 | 0.314 | 0.331 | 1.03 | 1.02 | 1.05 | 0.998 | 0.893 |
| NCI-H1395 |  | 1.17 | 1.16 | 1.09 | 0.967 | 0.382 | 0.368 | 0.45 | 0.381 | 0.421 | 0.542 | 0.525 | 0.61 | 0.475 | 0.544 | 0.73 | 0.766 | 0.709 | 0.604 | 0.724 |
| NCI-H1437 | 0.713 | 1.16 | 0.994 | 1.09 | 0.883 | 0.32 | 0.363 | 0.344 | 0.456 | 0.371 | 0.878 | 0.899 | 0.809 | 0.848 | 0.728 | 0.347 | 0.294 | 0.357 | 0.329 | 0.259 |
| NCI-H1563 | 0.783 | 1.03 | 0.991 | 0.832 | 0.998 | 0.469 | 0.553 | 0.529 | 0.439 | 0.477 | 0.796 | 0.653 | 0.69 | 0.754 | 0.633 | 0.646 | 0.705 | 0.534 | 0.726 | 0.733 |
| NCI-H1651 | 0.65 | 1.06 | 1.08 | 1.05 | 0.854 | 0.386 | 0.371 | 0.436 | 0.378 | 0.26 | 0.555 | 0.632 | 0.63 | 0.59 | 0.586 | 0.54 | 0.628 | 0.438 | 0.517 | 0.586 |
| NCI-H1666 | 0.792 | 1.18 | 0.861 | 1.14 | 0.987 | 0.6 | 0.858 | 0.987 | 0.903 | 0.722 | 0.836 | 0.81 | 0.831 | 0.819 | 0.887 | 0.783 | 0.852 | 0.839 | 0.802 | 0.856 |

— the supplement of paper PMC10307832
